Common to all, as to experiment: NCI tumour cell line growth inhibition, 48 h
Assay [1] has as its system SK-MEL-2.
The test system of assay [2] is MDA-MB-435.
Assay [3] concerns KM12.
Assay [4] has as its system SNB-19.
Assay [5] deals with K562.
The subject of assay [6] is PC-3.
In assay [7] the test system is NCI-H460.
The subject of assay [8] is RXF 393.
The test system of assay [9] is NCI-H23.
Assay [10] relates to OVCAR-4.
Assay [11] concerns OVCAR-8.
Assay [12] relates to HOP-92.
Assay [13] concerns IGROV-1.
Assay [14] deals with RPMI-8226.
The test system of assay [15] is U-251.
Assay [16] has as its system OVCAR-5.
The subject of assay [17] is SN12C.
Assay [18] has as its system Hs-578T.
For assay [19], the system named is HL-60.

Molecules are shown by their SMILES.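 Dose response: 5 concentrations. Exposure: 48 h. Format: 96-well plates. Endpoint: linear interpolation; highest concentration if not reached. The concentration for 50% growth inhibition is given as GI50.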 Activity calls are given as the source filed them. No stated cut-off is given here; in the data, active = GI50 up to about 1.1 µM and inactive = higher.

On to `CCCCCC(/C=C/C1CCC(=O)C1CC#C[Si](C)(C)C)OCc1ccccc1` (stereo unspecified), for which the GI50 in assay [1] was 15.5 µM (inactive); in assay [2], 19.9 µM (inactive); in assay [3], 16.2 µM (inactive); in [4], 28.4 µM (inactive); in assay [5] it was 19.1 µM (inactive); in assay [6] it was 17.3 µM (inactive). For the same compound, the GI50 in assay [7] was 17 µM (inactive); in assay [8], 13.9 µM (inactive); in [9] it was 22.2 µM (inactive); in assay [10], 26.9 µM (inactive); in assay [11], 14.8 µM (inactive); in [12], 12.1 µM (inactive). Besides, the GI50 in assay [13] was 14.5 µM (inactive); in assay [14] it was 14.7 µM (inactive); in assay [15] it was 19 µM (inactive); in assay [16] it was 19.9 µM (inactive); in [17], 19.8 µM (inactive); in assay [18] it was 17.9 µM (inactive).
For `Cc1ccc(NC(=O)C23CC4CC(CC(C4)C2)C3)c(C(=O)NNC(=O)c2ccc(Cl)cc2)c1`, the GI50 in [2] is 17.3 µM (inactive); in [3], 21.3 µM (inactive); in [4] it was 1.41 µM (inactive); in assay [5], 28.6 µM (inactive); in assay [6], 23.3 µM (inactive); in assay [7] it was 22 µM (inactive). Also, the GI50 in assay [8] is 15 µM (inactive); in [9], 12.9 µM (inactive); in [10], 16.7 µM (inactive); in assay [11], 30.2 µM (inactive); in assay [12], 9.48 µM (inactive); in assay [13], < 0.01 µM (active). Moreover, the GI50 in assay [19] was 28.3 µM (inactive); in assay [14] it was 19 µM (inactive); in [15], 17.2 µM (inactive); in assay [16], 17.3 µM (inactive); in [17] it was 28.4 µM (inactive); in [18] it was 4.3 µM (inactive).
As to `CO/N=C/c1c(-c2ccc(Cl)cc2)c(/C=N/OC)n2c1sc1ccccc12`, the GI50 in assay [1], in assay [2], in [3], in assay [4], in [5] and in assay [6] was > 100 µM (inactive) throughout. Besides, the GI50 in assay [7] is > 100 µM (inactive); in assay [8], > 100 µM (inactive); in [9], > 100 µM (inactive); in assay [10], 83 µM (inactive); in [11] it was > 100 µM (inactive); in assay [12], 8.49 µM (inactive). Moreover, the GI50 in assay [13] is > 100 µM (inactive); in assay [19] it was 32 µM (inactive); in assay [15], > 100 µM (inactive); in [16], > 100 µM (inactive); in assay [17] it was > 100 µM (inactive); in assay [18] it was > 100 µM (inactive).
Turning to `Cc1csc2c(=O)n(COCc3ccccc3)c(=O)[nH]c12`, the GI50 in assay [2], in assay [3], in [4], in assay [5], in [6] and in assay [7] was > 100 µM (inactive) each time. The GI50 in assay [8] is > 100 µM (inactive); in assay [9], > 100 µM (inactive); in [10], > 100 µM (inactive); in assay [11], > 100 µM (inactive); in assay [12], 40.8 µM (inactive); in assay [13], > 100 µM (inactive). The GI50 is > 100 µM (inactive) in assay [19]; > 100 µM (inactive) in assay [14]; > 100 µM (inactive) in [15]; > 100 µM (inactive) in assay [16]; > 100 µM (inactive) in assay [17]; 65 µM (inactive) in [18].
With `Cc1cc(-c2ccccc2)nc2oc(=O)n(C)c12`, the GI50 in assay [1] was 79.3 µM (inactive); in [2] it was > 100 µM (inactive); in assay [3], > 100 µM (inactive); in assay [4], > 100 µM (inactive); in assay [5] it was > 100 µM (inactive); in assay [6], > 100 µM (inactive). For the same compound, the GI50 in assay [7] is > 100 µM (inactive); in assay [8] it was 28.1 µM (inactive); in assay [9], 83.9 µM (inactive); in assay [10], > 100 µM (inactive); in assay [11], 90.4 µM (inactive); in [12], 86.5 µM (inactive). Also, the GI50 in assay [13] was 53.3 µM (inactive); in assay [19], > 100 µM (inactive); in assay [15] it was 51.1 µM (inactive); in assay [16] it was > 100 µM (inactive); in assay [17], 71.8 µM (inactive); in assay [18], > 100 µM (inactive).
With `CC(C)CCNC(=O)c1ccc(CNC(=O)/C=C/c2ccc3c(c2)-c2ccccc2C3)cc1`, the GI50 was > 100 µM (inactive) in assay [1]; 52.5 µM (inactive) in assay [2]; 33.3 µM (inactive) in assay [3]; > 100 µM (inactive) in assay [4]; 64.3 µM (inactive) in assay [5]; 42.9 µM (inactive) in assay [6]. In addition, the GI50 in [7] is 57.4 µM (inactive); in assay [8] it was 39.1 µM (inactive); in assay [9], 94 µM (inactive); in [10], 22.9 µM (inactive); in assay [11] it was 27.7 µM (inactive); in assay [12] it was 41.2 µM (inactive). The GI50 in assay [13] is 58.7 µM (inactive); in [14], 44 µM (inactive); in assay [15] it was 24.7 µM (inactive); in assay [16] it was > 100 µM (inactive); in assay [17] it was > 100 µM (inactive); in assay [18], 26.9 µM (inactive).
With `O=S(=O)(N1CCCCN(S(=O)(=O)C(F)(F)F)CCCN(S(=O)(=O)C(F)(F)F)CCCN(S(=O)(=O)C(F)(F)F)CCCCN(S(=O)(=O)C(F)(F)F)CCCN(S(=O)(=O)C(F)(F)F)CCC1)C(F)(F)F`, the GI50 in [1] is 76.4 µM (inactive); in [2], 53.7 µM (inactive); in assay [3] it was > 100 µM (inactive); in assay [4], 35.2 µM (inactive); in assay [5] it was > 100 µM (inactive); in assay [6] it was > 100 µM (inactive). For the same compound, the GI50 is 30.9 µM (inactive) in assay [7]; 28.6 µM (inactive) in [8]; 56.5 µM (inactive) in assay [9]; > 100 µM (inactive) in assay [10]; 36.4 µM (inactive) in assay [11]; 31 µM (inactive) in assay [12]. Moreover, the GI50 is 35.6 µM (inactive) in assay [13]; > 100 µM (inactive) in assay [19]; 21.6 µM (inactive) in [15]; > 100 µM (inactive) in assay [16]; 35.8 µM (inactive) in assay [17]; 30.3 µM (inactive) in assay [18].
In the case of `CCOC(=O)c1c[nH]c(C(=O)OCC)c1-c1cccn1-c1ccccc1`, the GI50 was 14.5 µM (inactive) in [1]; 27.5 µM (inactive) in assay [2]; 10.1 µM (inactive) in [3]; 31.7 µM (inactive) in assay [4]; 15.4 µM (inactive) in [5]; 18.7 µM (inactive) in assay [6]. Besides, the GI50 was 23 µM (inactive) in assay [7]; 16 µM (inactive) in [8]; 28.5 µM (inactive) in assay [9]; 19.2 µM (inactive) in [11]; 23.3 µM (inactive) in assay [12]; 10.7 µM (inactive) in assay [13]. Also, the GI50 in assay [19] is 18.4 µM (inactive); in assay [14], 14.2 µM (inactive); in assay [15] it was 19.2 µM (inactive); in assay [16], > 100 µM (inactive); in assay [17], 27 µM (inactive); in assay [18], 9.64 µM (inactive).
On to `O=c1[nH]c(=O)n(Cc2ccccc2CO)cc1Sc1ccccc1`, for which the GI50 in assay [1] was 19.3 µM (inactive); in assay [2] it was 20 µM (inactive); in assay [3] it was 23.7 µM (inactive); in assay [4], 35.7 µM (inactive); in assay [5] it was 6.78 µM (inactive); in [6], 33 µM (inactive). In addition, the GI50 in assay [7] is 49.7 µM (inactive); in assay [8] it was 24.7 µM (inactive); in assay [9], 17.4 µM (inactive); in assay [10], 50 µM (inactive); in assay [11], 17.7 µM (inactive); in [12] it was 36.2 µM (inactive). Moreover, the GI50 in assay [13] was 12.3 µM (inactive); in [19], 74.8 µM (inactive); in assay [15], 34.4 µM (inactive); in assay [16], > 100 µM (inactive); in assay [17] it was 34.8 µM (inactive); in assay [18] it was 23.1 µM (inactive).
Consider `C/C(=N\O)c1cccc(Nc2nc3ccccc3c3occc23)c1`, for which the GI50 is 10.1 µM (inactive) in [2]; 10 µM (inactive) in assay [3]; 16.9 µM (inactive) in [4]; 7.85 µM (inactive) in assay [5]; 12.1 µM (inactive) in [6]; 4.35 µM (inactive) in assay [7]. In addition, the GI50 was 5.19 µM (inactive) in [8]; 12.4 µM (inactive) in assay [10]; 16.6 µM (inactive) in [11]; 5.3 µM (inactive) in assay [12]; 20.9 µM (inactive) in assay [19]; 7.06 µM (inactive) in assay [14]. The GI50 is 19.4 µM (inactive) in [15], 14.9 µM (inactive) in [16], 15.5 µM (inactive) in [17] and 12.1 µM (inactive) in assay [18].
Turning to `O=C(CSCC(=O)N/N=C\c1cc(Cl)cc(Cl)c1O)N/N=C\c1cc(Cl)cc(Cl)c1O`, the GI50 in [1] is 2.51 µM (inactive); in [2], 8.04 µM (inactive); in assay [3], 6.1 µM (inactive); in [4], 16.7 µM (inactive); in assay [5], 2.37 µM (inactive); in assay [6] it was 4.27 µM (inactive). Also, the GI50 was 14.9 µM (inactive) in [7]; 20.5 µM (inactive) in assay [8]; 10.1 µM (inactive) in assay [9]; 2.42 µM (inactive) in assay [10]; 2.1 µM (inactive) in assay [11]; 5.73 µM (inactive) in [12]. The GI50 is 3.37 µM (inactive) in assay [13]; 2.75 µM (inactive) in assay [19]; 0.515 µM (active) in assay [15]; 10.4 µM (inactive) in assay [16]; 4.33 µM (inactive) in [17]; 2.08 µM (inactive) in [18].

Values taken from ChEMBL document CHEMBL1201862, “PubChem BioAssay data set” (2004).
